Assay results as given in article PMC7497403, “Development of Potent PfCLK3 Inhibitors Based on TCMDC-135051 as a New Class of Antimalarials” (Journal of Medicinal Chemistry, 2020).

How the values were obtained:
MAPKAP-K2 = MAPKAP-K2 (Homo sapiens, UniProt P49137); experiment: Kinase screen; assay type: biochemical
Source text: (§1) With verapamil used as a positive control.
(§2) V. Distribution coefficient (LogD7.4)

MST2 = MST2 (Homo sapiens, UniProt Q13188); experiment: Kinase screen; assay type: biochemical
Source text: as §1, §2

SGK1 = SGK1 (Homo sapiens, UniProt O00141); experiment: Kinase screen; assay type: biochemical
Source text: as §1, §2

ERK8 = ERK8 (Homo sapiens, UniProt Q8TD08); experiment: Kinase screen; assay type: biochemical
Source text: as §1, §2

MNK1 = MNK1 (Homo sapiens, UniProt Q9BUB5); experiment: Kinase screen; assay type: biochemical
Source text: as §1, §2

IGF-1R = IGF-1R (Homo sapiens, UniProt P08069); experiment: Kinase screen; assay type: biochemical
Source text: as §1, §2

TESK1 = TESK1 (Homo sapiens, UniProt Q15569); experiment: Kinase screen; assay type: biochemical
TESK1, sequence (Q15569 whole entry): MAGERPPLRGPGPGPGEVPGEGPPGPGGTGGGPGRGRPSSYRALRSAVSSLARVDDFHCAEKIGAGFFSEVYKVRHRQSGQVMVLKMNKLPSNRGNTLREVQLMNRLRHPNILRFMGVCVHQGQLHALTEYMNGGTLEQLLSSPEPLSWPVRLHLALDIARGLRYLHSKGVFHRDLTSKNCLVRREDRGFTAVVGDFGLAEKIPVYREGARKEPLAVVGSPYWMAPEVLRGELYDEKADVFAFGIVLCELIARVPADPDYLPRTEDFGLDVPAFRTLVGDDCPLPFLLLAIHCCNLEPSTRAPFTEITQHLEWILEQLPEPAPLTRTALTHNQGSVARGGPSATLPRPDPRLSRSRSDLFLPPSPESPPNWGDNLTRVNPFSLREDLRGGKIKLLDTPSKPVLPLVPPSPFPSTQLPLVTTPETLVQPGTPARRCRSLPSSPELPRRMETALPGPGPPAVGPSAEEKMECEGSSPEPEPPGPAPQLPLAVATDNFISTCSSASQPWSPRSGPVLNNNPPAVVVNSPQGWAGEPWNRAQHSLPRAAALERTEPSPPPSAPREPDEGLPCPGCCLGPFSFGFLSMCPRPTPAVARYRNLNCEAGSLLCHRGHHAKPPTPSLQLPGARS
Source text: as §1, §2

JNK2 = JNK2 (Homo sapiens, UniProt P45984); experiment: Kinase screen; assay type: biochemical
Source text: as §1, §2

JAK3 = JAK3 (Homo sapiens, UniProt P52333); experiment: Kinase screen; assay type: biochemical
Source text: as §1, §2

CHK1 = CHK1 (Homo sapiens, UniProt O14757); experiment: Kinase screen; assay type: biochemical
Source text: as §1, §2

IR = IR (Homo sapiens, UniProt P06213); experiment: Kinase screen; assay type: biochemical
Source text: as §1, §2

BRK = BRK (Homo sapiens, UniProt Q13882); experiment: Kinase screen; assay type: biochemical
Source text: as §1, §2

Aurora A = Aurora A (Homo sapiens, UniProt O14965); experiment: Kinase screen; assay type: biochemical
Source text: as §1, §2

TrkA = TrkA (Homo sapiens, UniProt P04629); experiment: Kinase screen; assay type: biochemical
Source text: as §1, §2

ERK1 = ERK1 (Homo sapiens, UniProt P27361); experiment: Kinase screen; assay type: biochemical
ERK1, sequence (P27361 whole entry): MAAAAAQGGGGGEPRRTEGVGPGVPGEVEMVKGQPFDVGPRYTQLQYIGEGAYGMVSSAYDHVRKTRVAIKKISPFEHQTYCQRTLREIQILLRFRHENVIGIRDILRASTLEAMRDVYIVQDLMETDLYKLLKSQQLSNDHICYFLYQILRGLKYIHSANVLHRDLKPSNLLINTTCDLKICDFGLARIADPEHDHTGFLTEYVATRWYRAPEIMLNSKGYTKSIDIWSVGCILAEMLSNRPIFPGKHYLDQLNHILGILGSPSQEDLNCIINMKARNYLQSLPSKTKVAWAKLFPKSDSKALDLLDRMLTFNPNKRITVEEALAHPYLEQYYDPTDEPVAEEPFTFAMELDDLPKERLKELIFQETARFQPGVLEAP
Source text: as §1, §2

PIM3 = PIM3 (Homo sapiens, UniProt Q86V86); experiment: Kinase screen; assay type: biochemical
Source text: as §1, §2

p38a MAPK = p38a MAPK (Homo sapiens, UniProt Q16539); experiment: Kinase screen; assay type: biochemical
p38a MAPK, sequence (Q16539 whole entry): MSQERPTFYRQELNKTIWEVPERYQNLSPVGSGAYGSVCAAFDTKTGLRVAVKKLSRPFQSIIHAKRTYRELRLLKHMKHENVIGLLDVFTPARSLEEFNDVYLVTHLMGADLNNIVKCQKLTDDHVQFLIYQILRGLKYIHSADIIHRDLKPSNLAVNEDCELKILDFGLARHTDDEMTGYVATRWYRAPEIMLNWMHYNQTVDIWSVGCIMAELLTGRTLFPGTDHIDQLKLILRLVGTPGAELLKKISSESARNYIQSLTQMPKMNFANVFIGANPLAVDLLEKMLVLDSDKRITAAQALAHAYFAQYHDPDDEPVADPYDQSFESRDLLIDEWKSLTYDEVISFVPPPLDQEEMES
Source text: as §1, §2

FGF-R1 = FGF-R1 (Homo sapiens, UniProt P11362); experiment: Kinase screen; assay type: biochemical
Source text: as §1, §2

JNK3 = JNK3 (Homo sapiens, UniProt P53779); experiment: Kinase screen; assay type: biochemical
Source text: as §1, §2

NEK6 = NEK6 (Homo sapiens, UniProt Q9HC98); experiment: Kinase screen; assay type: biochemical
Source text: as §1, §2

MARK3 = MARK3 (Homo sapiens, UniProt P27448); experiment: Kinase screen; assay type: biochemical
Source text: as §1, §2

ERK2 = ERK2 (Homo sapiens, UniProt P28482); experiment: Kinase screen; assay type: biochemical
Source text: as §1, §2

PKD1 = PKD1 (Homo sapiens, UniProt Q15139); experiment: Kinase screen; assay type: biochemical
PKD1, sequence (Q15139 whole entry): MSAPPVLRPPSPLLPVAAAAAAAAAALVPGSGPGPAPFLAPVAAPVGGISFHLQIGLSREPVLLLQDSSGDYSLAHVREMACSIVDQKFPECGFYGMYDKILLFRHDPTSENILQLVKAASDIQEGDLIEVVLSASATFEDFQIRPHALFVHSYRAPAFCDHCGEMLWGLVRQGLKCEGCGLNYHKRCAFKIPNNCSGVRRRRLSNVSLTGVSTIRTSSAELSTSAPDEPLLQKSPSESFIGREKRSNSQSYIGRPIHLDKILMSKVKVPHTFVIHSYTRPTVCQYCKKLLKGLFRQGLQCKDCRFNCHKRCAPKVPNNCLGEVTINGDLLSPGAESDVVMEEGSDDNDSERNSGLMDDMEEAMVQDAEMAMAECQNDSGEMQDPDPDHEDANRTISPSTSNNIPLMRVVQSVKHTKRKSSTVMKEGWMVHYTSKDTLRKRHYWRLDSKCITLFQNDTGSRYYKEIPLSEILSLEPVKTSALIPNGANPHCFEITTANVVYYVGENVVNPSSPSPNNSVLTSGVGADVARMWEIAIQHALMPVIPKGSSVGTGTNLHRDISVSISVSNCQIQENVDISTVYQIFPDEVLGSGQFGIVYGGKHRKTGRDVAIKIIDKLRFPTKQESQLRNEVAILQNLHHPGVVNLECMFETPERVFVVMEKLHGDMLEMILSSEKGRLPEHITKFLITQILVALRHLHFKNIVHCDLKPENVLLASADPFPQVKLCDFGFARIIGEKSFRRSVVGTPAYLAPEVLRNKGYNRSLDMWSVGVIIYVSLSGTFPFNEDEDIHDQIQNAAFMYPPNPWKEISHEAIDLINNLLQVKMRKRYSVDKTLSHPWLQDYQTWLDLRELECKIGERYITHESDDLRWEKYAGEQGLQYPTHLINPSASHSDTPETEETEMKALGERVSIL
Source text: as §1, §2

EPH-A2 = EPH-A2 (Homo sapiens, UniProt P29317); experiment: Kinase screen; assay type: biochemical
Source text: as §1, §2

CDK2-Cyclin A = CDK2-Cyclin A (Homo sapiens, UniProt P24941); experiment: Kinase screen; assay type: biochemical
Source text: as §1, §2

AMPK (hum) = AMPK (hum) (Homo sapiens, UniProt Q13131); experiment: Kinase screen; assay type: biochemical
Source text: as §1, §2

p38b MAPK = p38b MAPK (Homo sapiens, UniProt Q15759); experiment: Kinase screen; assay type: biochemical
Source text: as §1, §2

RSK2 = RSK2 (Homo sapiens, UniProt P51812); experiment: Kinase screen; assay type: biochemical
Source text: as §1, §2

SIK2 = SIK2 (Homo sapiens, UniProt Q9H0K1); experiment: Kinase screen; assay type: biochemical
Source text: as §1, §2

CAMKKb = CAMKKb (Homo sapiens, UniProt Q96RR4); experiment: Kinase screen; assay type: biochemical
CAMKKb, sequence (Q96RR4 whole entry): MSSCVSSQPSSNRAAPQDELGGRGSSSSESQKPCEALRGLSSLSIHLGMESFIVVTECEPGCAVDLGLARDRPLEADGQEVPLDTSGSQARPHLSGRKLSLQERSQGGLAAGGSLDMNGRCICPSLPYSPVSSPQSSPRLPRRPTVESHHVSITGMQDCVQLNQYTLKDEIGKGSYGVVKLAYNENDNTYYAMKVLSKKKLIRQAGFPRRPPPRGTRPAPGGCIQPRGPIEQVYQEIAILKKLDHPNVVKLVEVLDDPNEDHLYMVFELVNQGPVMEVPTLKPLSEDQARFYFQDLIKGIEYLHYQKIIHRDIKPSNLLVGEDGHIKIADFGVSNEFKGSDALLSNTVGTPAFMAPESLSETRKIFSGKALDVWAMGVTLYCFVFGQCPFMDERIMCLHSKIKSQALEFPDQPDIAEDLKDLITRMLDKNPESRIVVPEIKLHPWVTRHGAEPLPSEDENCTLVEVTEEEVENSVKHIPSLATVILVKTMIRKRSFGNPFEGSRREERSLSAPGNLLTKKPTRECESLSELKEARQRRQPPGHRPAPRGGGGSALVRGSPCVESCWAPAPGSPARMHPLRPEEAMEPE
Source text: as §1, §2

TLK1 = TLK1 (Homo sapiens, UniProt Q9UKI8); experiment: Kinase screen; assay type: biochemical
Source text: as §1, §2

CHK2 = CHK2 (Homo sapiens, UniProt O96017); experiment: Kinase screen; assay type: biochemical
Source text: as §1, §2

PRAK = PRAK (Homo sapiens, UniProt Q8IW41); experiment: Kinase screen; assay type: biochemical
Source text: as §1, §2

TTBK1 = TTBK1 (Homo sapiens, UniProt Q5TCY1); experiment: Kinase screen; assay type: biochemical
Source text: as §1, §2

EPH-B3 = EPH-B3 (Homo sapiens, UniProt P54753); experiment: Kinase screen; assay type: biochemical
Source text: as §1, §2

TTBK2 = TTBK2 (Homo sapiens, UniProt Q6IQ55); experiment: Kinase screen; assay type: biochemical
Source text: as §1, §2

MNK2 = MNK2 (Homo sapiens, UniProt Q9HBH9); experiment: Kinase screen; assay type: biochemical
MNK2, sequence (Q9HBH9 whole entry): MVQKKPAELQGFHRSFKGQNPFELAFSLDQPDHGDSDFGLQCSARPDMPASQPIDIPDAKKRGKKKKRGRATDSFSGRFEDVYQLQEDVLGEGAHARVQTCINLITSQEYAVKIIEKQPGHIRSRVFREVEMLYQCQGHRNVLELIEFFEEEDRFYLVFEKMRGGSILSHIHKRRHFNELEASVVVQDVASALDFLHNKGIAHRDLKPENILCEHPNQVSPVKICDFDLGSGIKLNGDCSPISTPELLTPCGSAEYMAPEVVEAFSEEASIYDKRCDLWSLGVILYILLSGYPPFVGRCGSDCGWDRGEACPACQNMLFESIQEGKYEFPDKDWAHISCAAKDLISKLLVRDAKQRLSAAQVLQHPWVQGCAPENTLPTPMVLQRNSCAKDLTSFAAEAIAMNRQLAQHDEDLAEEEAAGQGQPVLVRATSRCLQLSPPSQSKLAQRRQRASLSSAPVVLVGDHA
Source text: as §1, §2

TTK = TTK (Homo sapiens, UniProt P33981); experiment: Kinase screen; assay type: biochemical
TTK, sequence (P33981 whole entry): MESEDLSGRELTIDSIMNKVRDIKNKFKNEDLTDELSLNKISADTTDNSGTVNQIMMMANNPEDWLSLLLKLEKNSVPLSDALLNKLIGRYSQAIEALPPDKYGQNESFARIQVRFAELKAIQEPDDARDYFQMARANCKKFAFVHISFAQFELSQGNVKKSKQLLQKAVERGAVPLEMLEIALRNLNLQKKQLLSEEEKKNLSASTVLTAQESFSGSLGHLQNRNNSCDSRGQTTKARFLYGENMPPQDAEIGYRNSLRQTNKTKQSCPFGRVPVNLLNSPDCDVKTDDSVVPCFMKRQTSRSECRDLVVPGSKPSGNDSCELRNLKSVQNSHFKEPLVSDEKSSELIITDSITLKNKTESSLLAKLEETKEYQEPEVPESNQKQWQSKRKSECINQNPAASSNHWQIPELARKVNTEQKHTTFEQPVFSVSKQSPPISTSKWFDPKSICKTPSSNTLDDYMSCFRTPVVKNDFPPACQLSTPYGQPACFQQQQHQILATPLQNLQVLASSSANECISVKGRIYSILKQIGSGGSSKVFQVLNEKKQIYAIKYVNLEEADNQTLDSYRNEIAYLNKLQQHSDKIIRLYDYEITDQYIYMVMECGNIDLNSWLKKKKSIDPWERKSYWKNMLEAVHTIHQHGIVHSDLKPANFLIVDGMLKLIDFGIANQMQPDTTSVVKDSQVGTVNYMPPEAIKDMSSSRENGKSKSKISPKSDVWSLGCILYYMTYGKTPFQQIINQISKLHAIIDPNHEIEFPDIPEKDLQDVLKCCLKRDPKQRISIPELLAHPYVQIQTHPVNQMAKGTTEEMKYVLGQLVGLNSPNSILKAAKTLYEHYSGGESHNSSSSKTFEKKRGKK
Source text: as §1, §2

IKKe = IKKe (Homo sapiens, UniProt Q14164); experiment: Kinase screen; assay type: biochemical
IKKe, sequence (Q14164 whole entry): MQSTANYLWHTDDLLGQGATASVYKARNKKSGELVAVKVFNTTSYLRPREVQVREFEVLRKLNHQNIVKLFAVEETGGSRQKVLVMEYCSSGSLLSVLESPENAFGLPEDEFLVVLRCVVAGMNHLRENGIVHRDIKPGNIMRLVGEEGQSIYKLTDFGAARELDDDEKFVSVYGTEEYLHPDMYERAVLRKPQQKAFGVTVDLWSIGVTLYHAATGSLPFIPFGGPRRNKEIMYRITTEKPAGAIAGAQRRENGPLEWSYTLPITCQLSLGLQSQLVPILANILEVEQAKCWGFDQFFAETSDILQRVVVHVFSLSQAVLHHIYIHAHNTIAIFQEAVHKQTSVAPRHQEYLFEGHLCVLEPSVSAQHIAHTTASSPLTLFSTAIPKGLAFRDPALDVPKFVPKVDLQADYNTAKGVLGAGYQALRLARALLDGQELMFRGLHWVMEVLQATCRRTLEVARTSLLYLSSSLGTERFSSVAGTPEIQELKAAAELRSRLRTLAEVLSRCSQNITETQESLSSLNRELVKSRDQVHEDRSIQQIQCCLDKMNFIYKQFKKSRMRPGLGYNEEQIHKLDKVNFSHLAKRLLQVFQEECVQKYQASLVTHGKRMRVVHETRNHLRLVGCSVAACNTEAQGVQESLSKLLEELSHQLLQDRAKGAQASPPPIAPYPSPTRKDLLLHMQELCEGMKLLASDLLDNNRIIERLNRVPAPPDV
Source text: as §1, §2

CDK9-Cyclin T1 = CDK9-Cyclin T1 (Homo sapiens, UniProt P50750); experiment: Kinase screen; assay type: biochemical
Source text: as §1, §2

Microsomal stability = assay type: in vitro ADME; conditions: mouse liver microsomes; 1 μM compound
Experimental: Compounds were incubated at 37 °C at a concentration of 1 μM with CD1 mouse liver microsomes (GIBCO, Thermo Fisher Scientific) in a suspension of 50 mM potassium phosphate buffer (pH 7.4) with a final protein concentration of 0.5 mg/mL. The reaction was started by the addition of excess NADPH and then quenched at several time points starting from time 0, then at 3, 6, 9, 15, and 30 min addition of acetonitrile to an aliquot of the sample. An internal standard was added to each sample before centrifugation to remove any precipitates before monitoring loss of parent compound by HPLC analysis using Shimadzu LC-20A (Shimadzu, UK). Prism (Graphpad, USA) was used to fit an exponential decay for substrate depletion and subsequently rate constant (k) from the peak area of the parent compound to the internal standard at each time point.

CCN(CC)Cc1ccc(OC)c(-c2cc3c(-c4ccc(C(=O)O)c(C(C)C)c4)ccnc3[nH]2)c1 [analogue 1, 4-(2-(5-((Diethylamino)methyl)-2-methoxyphenyl)-1H-pyrrolo[2,3-b]pyridin-4-yl)-2-isopropylbenzoic Acid] gave an activity at 1 µM (MAPKAP-K2) of 102%, an activity at 1 µM (MST2) of 68% and an activity at 1 µM (SGK1) of 38%. The activity at 1 µM (ERK8) was 55%, the activity at 1 µM (MNK1) was 0% and the activity at 1 µM (IGF-1R) was 51%. It also gave an activity at 1 µM (TESK1) of 78%, an activity at 1 µM (JNK2) of 62% and an activity at 1 µM (JAK3) of 22%. It also gave an activity at 1 µM (CHK1) of 78%, an activity at 1 µM (IR) of 77% and an activity at 1 µM (BRK) of 33%. It also gave an activity at 1 µM (Aurora A) of 17%, an activity at 1 µM (TrkA) of 87% and an activity at 1 µM (ERK1) of 100%. The activity at 1 µM (PIM3) was 80%, the activity at 1 µM (p38a MAPK) was 89% and the activity at 1 µM (FGF-R1) was 50%. For the same compound, the activity at 1 µM (JNK3) was 52%, the activity at 1 µM (NEK6) was 96% and the activity at 1 µM (MARK3) was 34%. The activity at 1 µM (ERK2) was 115%, the activity at 1 µM (PKD1) was 85% and the activity at 1 µM (EPH-A2) was 64%. For the same compound, the activity at 1 µM (CDK2-Cyclin A) was 12%, the activity at 1 µM (AMPK (hum)) was 30% and the activity at 1 µM (p38b MAPK) was 112%. It also gave an activity at 1 µM (RSK2) of 87%, an activity at 1 µM (SIK2) of 41% and an activity at 1 µM (CAMKKb) of 2%. It also gave an activity at 1 µM (TLK1) of 106%, an activity at 1 µM (CHK2) of 77% and an activity at 1 µM (PRAK) of 88%. For the same compound, the activity at 1 µM (TTBK1) was 102%, the activity at 1 µM (EPH-B3) was 108% and the activity at 1 µM (TTBK2) was 114%. The activity at 1 µM (MNK2) was 29%, the activity at 1 µM (TTK) was 86% and the activity at 1 µM (IKKe) was 52%. For the same compound, the activity at 1 µM (CDK9-Cyclin T1) was 2% and the “clint (in vitro intrinsic clearance)” value (Microsomal stability) was 1.12 mL/min/g liver.
